The numbers were not newly measured in patent US20050181044A1, “Compositions and methods for timed release of water-soluble nutritional supplements, green coffee extract” (priority 2004, published 2005), which cites them from elsewhere.

For this data set the following is noted: absorbed by the gastrointestinal tract, after first-pass metabolism in the liver.

The structures appear in SMILES notation.

Take `N[C@H]1C(O)O[C@H](CO)[C@@H](O)[C@@H]1O` (stereo partly shown) [Glucosamine]: the bioavailability (in general, dose-corrected exposure relative to a reference, in per cent) was 26%.
